Reference: patent US20220162559A1, “MYOCARDIAL ORGANOIDS AND METHODS OF MAKING AND USES THEREOF” (CLEMSON UNIVERSITY RESEARCH FOUNDATION, priority 2018, published 2022)

Tests used:
Type in all cases: cell-based, human
[1] = system: cardiac infarct organoids; experiment: Contraction analysis of beating organoids (contraction amplitude, beat rate), infarct organoids
Method: For the cardiac infarction protocol, microtissues (about150 μm radius on D0) were placed in a hypoxia chamber within the incubator at about 10% O2 with 1 μM of norepinephrine (NE, A7257, Sigma) after 4 days of pre-culture. Media was changed with fresh NE every 2 days for the length of the experiment (10 days). For extended validation studies, 20 ng/ml of human recombinant transforming growth factor beta 1 (TGF-β1, ab50036, Abcam, Cambridge, UK), 10 nM of JQ1 (SML1524, Sigma), and 2 ng/ml of human recombinant vascular endothelial growth factor (VEGF, CC-4114A, Lonza) was added to the media every 2 days for infarct organoids for the length of the experiment (10 days).
(§1) Videos of spontaneously beating spheroids from each group were recorded immediately out of the incubator (to reduce temperature induced changes in beating) for each condition using a Carl Zeiss Axiovert A1 Inverted Microscope and Zen 2011 software (Zeiss, Gottingen, Germany). Threshold edge-detecting in ImageJ software (NIH—US National Institutes of Health) was used on high contrast spheroid picture series and graphed to realize beating profiles of fractional area change, from which contraction amplitude was calculated. Contraction amplitudes were calculated as the percent change in fractional area change amplitude between contraction and relaxation. Beat rate was calculated as the number of beats per second.

[2] = system: control cardiac organoids; experiment: Contraction analysis of beating organoids (contraction amplitude, beating), control organoids
Text: Non-adhesive agarose hydrogel molds were used as microtissue fabrication molds made from commercial master micro-molds from Microtissues, Inc (Providence, R.I.). Working cell suspensions of each cell type were used at about 4.0×10^6 cells/ml to make organoid cell ratio mixtures of about 50% hiPSC-CMs and about 50% non-myocyte (4:2:1 ratio of FBs, HUVECs, hADSCs, respectively) and mixed with 1 volume media for a final concentration of about 2.0×10^6 cells/ml. hiPSC-CM only spheroids were fabricated using 100% hiPSC-CMs at a final concentration of about 2.0×10^6 cells/ml. Approximately 75 μl of the cell suspension was pipetted into each agarose mold. […]
as §1

[3] = system: cardiac infarct organoids; experiment: TUNEL apoptotic staining of organoid sections; settings: 1 μM, 48 hours of exposure
Method: The Roche In Situ Cell Death Detection Kit (Sigma) was used to visualize apoptotic cells in frozen sections of cardiac organoids based on the Roche protocol. Briefly, cardiac organoid frozen sections were fixed with 4% paraformaldehyde in PBS for 20 min at room temperature. Following washing in PBS for 30 minutes, samples were incubated in a permeabilization solution (0.1% Triton X-100 and 0.1% sodium citrate in PBS) for 2 minutes on ice. Then 50 μl of the TUNEL reaction mixture were added to samples and incubated at 37° C. for 1 hr. After washing in PBS (2 times at 5 min), nuclei were counterstained with DAPI (Molecular Probes/Invitrogen) diluted in PBS for 15 min at ambient temperature. Following the final wash procedure (PBS, 2 times at 5 min), glass cover slips were added to the slides using Fluoro-Gel (Electron Microscopy Sciences). TCS SP5 AOBS laser scanning confocal microscope (Leica Microsystems) was used for imaging.

[4] = system: cardiac infarct organoids; experiment: Immunofluorescent staining of organoid sections (vimentin, alpha sarcomeric actinin, αSMA, collagen), infarct organoids
Method: (§2) Freshly collected organoids were flash frozen in Tissue-Tek OCT compound (Sakura, Torrance, Calif.). Embedded spheroids were cryosectioned into 7 μm thickness layers onto glass slides for immunofluorescence staining. The sections were fixed with pre-cooled acetone (−20° C.) for 10 min. After washing (2 times at 5 min) in PBS with 0.1% Triton X-100 (PBST) (Sigma), blocking buffer was made with 10% serum corresponding to host species of secondary antibody in PBST and added to sections for 1 hr at room temperature. Sections were incubated with primary antibody diluted in PBST (1:200) overnight at 4° C. or 2 hrs at room temperature: mouse anti-alpha smooth muscle actin (A5228, Sigma), mouse anti-alpha sarcomeric actinin (ab9465, Abcam), rabbit anti-collagen type I (ab34710, Abcam), rabbit anti-vimentin (ab92547, Abcam), rabbit anti-von Willebrand factor (ab6994, Abcam). After washing in PBST (2 times at 5 min), sections were incubated with complement secondary antibodies or conjugated primary antibodies diluted in PBST for 1 hr at room temperature: Alexa Fluor 488 phalloidin (A12379, Thermo), goat anti-mouse Alexa Fluor 546 (A1103, Thermo), goat anti-rabbit Alexa Fluor 647 (111-605-144, Jackson ImmunoResearch, West Grove, Pa.). After washing in PBST (2 times at 5 min), nuclei were counterstained with DAPI (Molecular Probes/Invitrogen, Eugene, Oreg.) diluted in PBST for 15 min at room temperature. Following the final wash procedure (PBST, 2 times at 5 min), glass cover slips were added using Fluoro-Gel (Electron Microscopy Sciences, Hatfield, Pa.) and stored in 4° C. until imaging. TCS SP5 AOBS laser scanning confocal microscope (Leica Microsystems, Inc., Exton, Pa.) was for imaging. Vimentin radial density was calculated using the Radial Profile ImageJ plugin and normalized to radius equal to 1. Each analysis consisted of high resolution images at 400× total magnification of cross sections of different organoids.

[5] = system: control cardiac organoids; experiment: Immunofluorescent staining of organoid sections (vimentin), control organoids; settings: 48 hrs of exposure
Method: as §2, with “After washing in PBST (2 times at 5 min), nuclei were counterstained with DAPI (Molecular Probes/Invitrogen, Eugene, Oreg.) diluted in PBST for 15 min at room temperature. Following the final wash procedure (PBST, 2 times at 5 min), glass cover slips were added using Fluoro-Gel (Electron Microscopy Sciences, Hatfield, Pa.) and stored in 4° C. until imaging. TCS SP5 AOBS laser scanning confocal microscope (Leica Microsystems, Inc., Exton, Pa.) was for imaging.” left out, “Each analysis consisted of high resolution images at 400× total magnification of cross sections of different organoids.” left out

[6] = system: hiPSC-CMs; experiment: 2D hiPSC-CM culture with in vitro infarction protocol and DOX; settings: hypoxic culture (1%) with 1 μM NE 2 days prior to 2 days DOX treatment
Text: As a control, we performed 2D studies using hiPSC-CMs with DOX to evaluate the combined effects of an in vitro infarction protocol and DOX on hiPSC-CMs. […] Nearly 100% of cells death was found for hiPSC-CMs after 4 days of the same hypoxic culture using hiPSC-CM media with galactose but no glucose, which has been attributed to the lack of glucose in the hiPSC-CM media. In addition, extended culture of 2D hiPSC-CMs in organoid media to mimic prolonged organoid infarction protocol led to minimal and irregular hiPSC-CM contractile behavior accompanied with the reduction of αSA+ cells. In contrast to the inherent difficulties of using 2D hiPSC-CM culture systems to model post-MI responses, human infarct organoids provide a robust, biomimetic […] tissue-level context to evaluate the effects of DOX on the post-MI cardiac tissues.

[7] = system: cardiac infarct organoids; experiment: Mechanical testing using micropipette aspiration (elastic modulus)
Method: A micropipette aspiration was performed in media similarly to previous studies using a custom-built fluid reservoir to generate a fixed pressure of 40 cm H2O (about 3.9 kPa) in pulled micropipette to apply the suction force on test organoids.^23,24 Validation and stability of pressure changes were confirmed using an in-line 5 kPa 2-port pressure transducer with about 1 Pa sensitivity (Honeywell, Morristown, N.J.). Micropipettes were pulled to a final inner diameter of approximately 40-60 μm. Prior to and during testing, organoids were soaked in a 30 mM solution of 2,3-butanedione monoxime (BDM) (Sigma) in media for 5-10 min to eliminate contractions to reduce the effect of contractile status on tissue stiffness. Pressure was applied to the organoid surface and pictures were recorded until reaching equilibrium deformation (about 5 min) (FIG. 2F). Under the homogeneous half-space model assumptions^23, the change in length (L) from pre-deformation to equilibrium deformation was used to calculate the elastic modulus according the previously established relationship: E=3aΔp/2πL Φ(η), where E is elastic modulus, a is the inner micropipette radius, Δp is the applied pressure, Φ( ) is the wall function (under punch model assumptions), and η is the wall parameter.^24,25

[8] = system: cardiac infarct organoids; experiment: Calcium transient imaging with two-photon light sheet microscope (beating synchronization)
Text: To functionally interpret the transcriptomic shifts in cardiomyocyte calcium handling and arrhythmogenesis, a two-photon, laser-scanning, light sheet (2PLS) microscope was used that allowed for deeper tissue penetration with high-speed imaging (50 frames/sec) and orthogonal selected plane (about 4 μm thickness) illumination.^27 Given its strength for in situ imaging, the 2PLS microscope allowed for the visualization of calcium handling in the interior regions of 3D cardiac microtissues to study calcium handling and arrhythmogenicity across the organoids. Organoids were fabricated with GCaMP6-labeled hiPSC-CMs and calcium transient amplitudes (ΔF/F0) were measured from “cell-sized” regions of interest (ROIs) (representing individual cardiomyocytes) inside organoids. […] In particular, imaging and calcium transient profiles of synchronized edge and interior cardiomyocyte ROIs from human induced pluripotent stem cell-derived-cardiomyocyte (hiPSC-CM) spheroids were cultured in the cardiac organoid infarction protocol.

[9] = 20 ng/ml added during infarction protocol
[10] = 10 nM added to infarct organoid culture

NC[C@H](O)c1ccc(O)c(O)c1 [NE, norepinephrine]
beat rate ([1]; 10% O2 with 1 μM for 10 days, versus control organoids): increase in beat rate

COc1cccc2c1C(=O)c1c(O)c3c(c(O)c1C2=O)C[C@@](O)(C(=O)CO)C[C@@H]3O[C@H]1C[C@H](N)[C@H](O)[C@H](C)O1 [DOX, doxorubicin]
IC50 ([1]; Homo sapiens, infarct organoids, 48 hrs of exposure starting on D10): ~150 nM
concentration at cessation of beating ([1]; infarct organoids): 1 µM
concentration at cessation of beating [2]: 10 µM
IC50 ([2]; Homo sapiens, 48 hrs of exposure starting on D10): ~370 nM
apoptosis (TUNEL analysis) [3]: significantly increased apoptosis
dose inducing an increase in vimentin+ density ([4]; infarct organoids, 48 hrs of exposure): 0.1 µM
αSA staining relative to vehicle control (sarcomeric organization) ([4]; interior of infarct organoids, 0.1 μM): significantly decreases
dose inducing an increase in vimentin+ density [5]: 1.0 µM
viability and contractile structures/organization of 2D hiPSC-CMs [6]: exacerbation of DOX-induced reduction in viability and reduction in contractile structures/organization

TGF-β1: human recombinant transforming growth factor beta 1, pro-fibrotic stimulus
collagen organization and presence of αSMA+ myofibroblast-like cells [4, 9]: further increased
organoid stiffness (elastic modulus) [7, 9]: significant increase in organoid stiffness

Cc1sc2c(c1C)C(c1ccc(Cl)cc1)=N[C@@H](CC(=O)OC(C)(C)C)c1nnc(C)n1-2 [JQ1]
vimentin+ density at the infarct organoid edge [4, 10]: significantly reduced
organoid stiffness (elastic modulus) [7, 10]: significant decrease in stiffness
unsynchronized beating of infarct organoids ([8]; 10 nM): reduction of unsynchronization

COCCc1ccc(OCC(O)CNC(C)C)cc1 (centres unmarked) [metoprolol]
NE-induced increase in beat rate ([1]; infarct organoids cultured with 10 μM, D10): reversed

VEGF
unsynchronized beating of infarct organoids ([8]; 2 ng/ml): reduction of unsynchronization
